Data from ChEMBL document CHEMBL4765421, “Synthesis of natural 3'-Prenylchalconaringenin and biological evaluation of ameliorating non-alcoholic fatty liver disease and metabolic syndrome” (Eur J Med Chem, 2020).
The source made the active and inactive calls. No cut-off for these calls is given here.

Key:
[1] = tested on: HepG2; assay: Hypolipidemic activity in oleic, palmitic, linoleic and arachidonic acid 29:47:18:6 (v/v)-induced hyperlipidemia in human HepG2 cells assessed as reduction in lipid content at 7.5 uM by Oil Red O staining based assay relative to control; format: functional; set-up: scale not given: the % may be the effect or the level left
[2] = tested on: Mus musculus; assay: Hypolipidemic activity in tyloxapol-induced Kunming mouse model of hyperlipidemia assessed as reduction in serum lipid level at 50 to 100 mg/kg, po measured after 24 hrs by macroscopic analysis; format: functional, organism-based; conditions: dose 50-100 mg/kg
[3] = tested on: Mus musculus; assay: Hypolipidemic activity in tyloxapol-induced Kunming mouse model of hyperlipidemia assessed as reduction in fatty liver phenotype at 50 to 100 mg/kg, po measured after 24 hrs; format: functional, organism-based; conditions: dose 50-100 mg/kg
[4] = tested on: Mus musculus; assay: Hypolipidemic activity in tyloxapol-induced Kunming mouse model of hyperlipidemia assessed as liver index at 50 mg/kg, po measured after 24 hrs (reference value: 65.00 +/- 0.87); format: functional
[5] = tested on: 3T3-L1; assay: Activation of AMPK in mouse 3T3-L1 preadipocytes assessed as increase in ACC phosphorylation at 0.1 to 15 uM by Western blot analysis; format: cell-based; conditions: filed as activator, dose 0.1-15 µM
[6] = tested on: HepG2; assay: Hypolipidemic activity in oleic, palmitic, linoleic and arachidonic acid 29:47:18:6 (v/v)-induced hyperlipidemia in human HepG2 cells assessed as reduction in lipid content at 10 uM by Oil Red O staining based assay relative to control; format: functional; set-up: scale not given: the % may be the effect or the level left
[7] = tested on: Mus musculus; assay: Hypolipidemic activity in tyloxapol-induced Kunming mouse model of hyperlipidemia assessed as perirenal white adipose tissue index at 50 mg/kg, po measured after 24 hrs (reference value: 18.14 +/- 1.44); format: functional
[8] = tested on: Mus musculus; assay: In vivo induction of AMPK in tyloxapol-induced Kunming mouse model of hyperlipidemia assessed as increase in AMPKalpha phosphorylation in liver at 50 to 100 mg/kg, po measured after 24 hrs by Western blot analysis; format: functional, organism-based; conditions: dose 50-100 mg/kg
[9] = tested on: Mus musculus; assay: Hypolipidemic activity in tyloxapol-induced Kunming mouse model of hyperlipidemia assessed as epididymis white adipose tissue index at 100 mg/kg, po measured after 24 hrs (reference value: 23.43 +/- 3.10); format: functional
[10] = tested on: Mus musculus; assay: Hypolipidemic activity in tyloxapol-induced Kunming mouse model of hyperlipidemia assessed as reduction in serum LDL level administered orally measured after 24 hrs; format: functional, organism-based
[11] = tested on: Mus musculus; assay: Hypolipidemic activity in tyloxapol-induced Kunming mouse model of hyperlipidemia assessed as reduction in liver AST level administered orally measured after 24 hrs; format: functional, organism-based
[12] = tested on: Mus musculus; assay: Hypolipidemic activity in tyloxapol-induced Kunming mouse model of hyperlipidemia assessed as reduction in serum IL6 level at 50 to 100 mg/kg, po measured after 24 hrs; format: functional, organism-based; conditions: dose 50-100 mg/kg
[13] = tested on: Mus musculus; assay: Hypolipidemic activity in tyloxapol-induced Kunming mouse model of hyperlipidemia assessed as reduction in serum ALT level administered orally measured after 24 hrs; format: functional, organism-based
[14] = tested on: 3T3-L1; assay: Activation of AMPK in mouse 3T3-L1 matured adipocytes assessed as increase in AMPK phosphorylation at 1 uM by Western blot analysis relative to control; format: cell-based; conditions: filed as activator
[15] = tested on: Mus musculus; assay: In vivo induction of AMPK in tyloxapol-induced Kunming mouse model of hyperlipidemia assessed as increase in CPT-1A phosphorylation in liver at 50 to 100 mg/kg, po measured after 24 hrs by Western blot analysis; format: functional, organism-based; conditions: dose 50-100 mg/kg
[16] = tested on: 3T3-L1; assay: Hypolipidemic activity in mouse 3T3-L1 preadipocytes assessed as reduction in lipid content at 15 uM by Oil Red O staining based assay relative to control; format: functional; set-up: scale not given: the % may be the effect or the level left
[17] = tested on: Mus musculus; assay: Hypolipidemic activity in tyloxapol-induced Kunming mouse model of hyperlipidemia assessed as epididymis white adipose tissue index at 50 mg/kg, po measured after 24 hrs (reference value: 23.43 +/- 3.10); format: functional
[18] = tested on: 3T3-L1; assay: Activation of AMPK in mouse 3T3-L1 matured adipocytes assessed as increase in ACC phosphorylation at 1 uM by Western blot analysis relative to control; format: cell-based; conditions: filed as activator
[19] = tested on: 3T3-L1; assay: Hypolipidemic activity in mouse 3T3-L1 mature adipocytes assessed as reduction in lipid content at 15 uM by Oil Red O staining based assay relative to control; format: functional; set-up: scale not given: the % may be the effect or the level left
[20] = tested on: 3T3-L1; assay: Cytotoxicity against mouse 3T3-L1 cells assessed as reduction in cell viability by MTT assay; format: cell-based
[21] = tested on: Mus musculus; assay: Hypolipidemic activity in tyloxapol-induced Kunming mouse model of hyperlipidemia assessed as spleen index at 100 mg/kg, po measured after 24 hrs (reference value: 3.87 +/- 0.05); format: functional
[22] = tested on: 3T3-L1; assay: Hypolipidemic activity in mouse 3T3-L1 mature adipocytes assessed as reduction in triglyceride content; format: functional, cell-based
[23] = tested on: 3T3-L1; assay: Hypolipidemic activity in mouse 3T3-L1 mature adipocytes assessed as reduction in lipid content at 1 uM by Oil Red O staining based assay relative to control; format: functional; set-up: scale not given: the % may be the effect or the level left
[24] = tested on: Mus musculus; assay: Hypolipidemic activity in tyloxapol-induced Kunming mouse model of hyperlipidemia assessed as reduction in liver MPO level at 50 to 100 mg/kg, po measured after 24 hrs; format: functional, organism-based; conditions: dose 50-100 mg/kg
[25] = tested on: Mus musculus; assay: In vivo induction of AMPK in tyloxapol-induced Kunming mouse model of hyperlipidemia assessed as increase in ACC phosphorylation in liver at 50 to 100 mg/kg, po measured after 24 hrs by Western blot analysis; format: functional, organism-based; conditions: dose 50-100 mg/kg
[26] = tested on: Mus musculus; assay: In vivo effect on PPAR signaling in tyloxapol-induced Kunming mouse model of hyperlipidemia assessed as increase in mTOR phosphorylation in white adipose tissue administered orally measured after 24 hrs by Western blot analysis; format: functional, organism-based
[27] = tested on: HepG2; assay: Hypolipidemic activity in oleic, palmitic, linoleic and arachidonic acid 29:47:18:6 (v/v)-induced hyperlipidemia in human HepG2 cells assessed as reduction in triglyceride content; format: functional, cell-based
[28] = tested on: Mus musculus; assay: In vivo induction of AMPK in tyloxapol-induced Kunming mouse model of hyperlipidemia assessed as decrease in SREBP1-C expression in white adipose tissue at 50 to 100 mg/kg, po measured after 24 hrs by Western blot analysis; format: functional, organism-based; conditions: dose 50-100 mg/kg
[29] = tested on: Mus musculus; assay: In vivo induction of AMPK in tyloxapol-induced Kunming mouse model of hyperlipidemia assessed as increase in AMPKalpha phosphorylation in white adipose tissue at 50 to 100 mg/kg, po measured after 24 hrs by Western blot analysis; format: functional, organism-based; conditions: dose 50-100 mg/kg
[30] = tested on: Mus musculus; assay: Hypolipidemic activity in tyloxapol-induced Kunming mouse model of hyperlipidemia at 50 to 100 mg/kg, po measured after 24 hrs by Masson's trichrome staining based assay; format: functional, organism-based; conditions: dose 50-100 mg/kg
[31] = tested on: 3T3-L1; assay: Hypolipidemic activity in mouse 3T3-L1 mature adipocytes assessed as reduction in lipid content at 5 uM by Oil Red O staining based assay relative to control; format: functional; set-up: scale not given: the % may be the effect or the level left
[32] = tested on: HepG2; assay: Activation of AMPK in oleic, palmitic, linoleic and arachidonic acid 29:47:18:6 (v/v)-induced human HepG2 cells assessed as increase in ACC phosphorylation at 1 uM by Western blot analysis relative to control
[33] = tested on: Mus musculus; assay: Hypolipidemic activity in tyloxapol-induced Kunming mouse model of hyperlipidemia assessed as liver index at 100 mg/kg, po measured after 24 hrs (reference value: 65.00 +/- 0.87); format: functional
[34] = tested on: Mus musculus; assay: Hypolipidemic activity in tyloxapol-induced Kunming mouse model of hyperlipidemia assessed as kidney index at 50 mg/kg, po measured after 24 hrs (reference value: 11.20 +/- 0.58); format: functional

In the case of `CC(C)=CCC/C(C)=C/Cc1c(O)cc(O)c(C(=O)/C=C/c2ccc(O)cc2)c1O`, the Activity [1] is reported as 43.86%, the Activity [2] is reported as “Active” and the Activity [3] is reported as “Active”. The Activity_index [4] was 55.64, the Activity [5] was “Active” and the Activity [6] was 54.38%. For the same compound, the Activity_index [7] was 9.52, the Activity [8] was “Active” and the Activity_index [9] was 12.35. The Activity [10] was “Dose-dependent effect”, the Activity [11] was “Dose-dependent effect” and the Activity [12] was “Active”. For the same compound, the Activity [13] was “Dose-dependent effect”, the Activity [14] was 49% and the Activity [15] was “Active”. The Activity [16] was 83.91%, the Activity_index [17] was 14.85 and the Activity [18] was 260%. The Activity [19] was 72.12%, the Activity [20] was “Non-Toxic” and the Activity_index [21] was 2.62. For the same compound, the Activity [22] was “Dose-dependent effect”, the Activity [23] was 39.16% and the Activity [24] was “Active”. The Activity [25] was “Active”, the Activity [26] was “Dose-dependent effect” and the Activity [27] was “Dose-dependent effect”. The Activity [28] was “Active”, the Activity [29] was “Active” and the Activity [30] was “Active”. The Activity [31] was 71.33%, the Activity [32] was 31.7% and the Activity_index [33] was 52.78. For the same compound, the Activity_index [34] was 9.46.
